For series [1] the following is noted: 3-hour incubation in rat plasma; cited from earlier work.
The next series addresses T1, OAT1 (Homo sapiens, UniProt Q4U2R8).
T1 sequence (Q4U2R8 1-563): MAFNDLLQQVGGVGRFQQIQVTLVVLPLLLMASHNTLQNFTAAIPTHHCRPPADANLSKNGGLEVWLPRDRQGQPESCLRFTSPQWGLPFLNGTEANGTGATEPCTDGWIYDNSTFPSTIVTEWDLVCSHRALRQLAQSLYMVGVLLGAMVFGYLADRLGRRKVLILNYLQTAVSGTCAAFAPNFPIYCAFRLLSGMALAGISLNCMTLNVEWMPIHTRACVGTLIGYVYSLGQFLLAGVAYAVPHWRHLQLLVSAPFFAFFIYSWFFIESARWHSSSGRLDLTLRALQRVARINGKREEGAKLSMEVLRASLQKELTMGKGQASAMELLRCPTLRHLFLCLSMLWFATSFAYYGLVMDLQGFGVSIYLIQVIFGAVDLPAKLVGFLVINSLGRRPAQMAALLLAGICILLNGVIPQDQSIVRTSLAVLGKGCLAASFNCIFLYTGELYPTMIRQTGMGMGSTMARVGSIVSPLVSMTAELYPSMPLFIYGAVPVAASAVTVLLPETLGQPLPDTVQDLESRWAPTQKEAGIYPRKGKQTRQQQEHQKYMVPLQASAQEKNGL
The series can be described thus: Inhibitory effect of catalposide on OAT1 transport activity. It counts as in vitro ADME. Conditions: probe 1 μM PAH, catalposide 0–100 μM.

Series [2] has as its target T2, BCRP (Homo sapiens, UniProt Q9UNQ0).
T2 sequence (Q9UNQ0 1-655): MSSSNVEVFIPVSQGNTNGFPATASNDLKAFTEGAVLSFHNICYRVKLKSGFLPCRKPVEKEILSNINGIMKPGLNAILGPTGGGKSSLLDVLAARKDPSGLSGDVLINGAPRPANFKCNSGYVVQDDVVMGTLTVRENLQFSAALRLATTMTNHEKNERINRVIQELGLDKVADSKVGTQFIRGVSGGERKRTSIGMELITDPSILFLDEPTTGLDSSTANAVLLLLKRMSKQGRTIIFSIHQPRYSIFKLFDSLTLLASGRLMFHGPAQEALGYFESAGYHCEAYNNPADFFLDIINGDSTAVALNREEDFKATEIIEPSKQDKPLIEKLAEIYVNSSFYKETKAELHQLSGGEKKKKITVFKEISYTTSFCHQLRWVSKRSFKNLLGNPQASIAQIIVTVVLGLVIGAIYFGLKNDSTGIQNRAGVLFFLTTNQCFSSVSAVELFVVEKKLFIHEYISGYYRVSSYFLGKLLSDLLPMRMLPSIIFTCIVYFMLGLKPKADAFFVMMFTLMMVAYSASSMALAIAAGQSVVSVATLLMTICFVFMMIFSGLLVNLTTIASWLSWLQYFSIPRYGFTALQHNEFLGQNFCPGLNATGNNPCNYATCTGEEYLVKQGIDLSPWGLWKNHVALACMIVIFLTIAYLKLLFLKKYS
Briefly: Inhibitory effect of catalposide on BCRP transport activity. It counts as in vitro ADME. Conditions: probe 0.1 μM [3H]ES, catalposide 1–100 μM.

For series [3], the target named is T2, BCRP. Briefly: A-to-B and B-to-A transport in LLC-PK1 cells overexpressing BCRP. It counts as in vitro ADME. As to conditions: BCRP, efflux.
The conditions of series [4]: rats, cited from earlier work.
In series [5] the target is T3, OCT2 (Homo sapiens, UniProt O15244).
T3 sequence (O15244 1-555): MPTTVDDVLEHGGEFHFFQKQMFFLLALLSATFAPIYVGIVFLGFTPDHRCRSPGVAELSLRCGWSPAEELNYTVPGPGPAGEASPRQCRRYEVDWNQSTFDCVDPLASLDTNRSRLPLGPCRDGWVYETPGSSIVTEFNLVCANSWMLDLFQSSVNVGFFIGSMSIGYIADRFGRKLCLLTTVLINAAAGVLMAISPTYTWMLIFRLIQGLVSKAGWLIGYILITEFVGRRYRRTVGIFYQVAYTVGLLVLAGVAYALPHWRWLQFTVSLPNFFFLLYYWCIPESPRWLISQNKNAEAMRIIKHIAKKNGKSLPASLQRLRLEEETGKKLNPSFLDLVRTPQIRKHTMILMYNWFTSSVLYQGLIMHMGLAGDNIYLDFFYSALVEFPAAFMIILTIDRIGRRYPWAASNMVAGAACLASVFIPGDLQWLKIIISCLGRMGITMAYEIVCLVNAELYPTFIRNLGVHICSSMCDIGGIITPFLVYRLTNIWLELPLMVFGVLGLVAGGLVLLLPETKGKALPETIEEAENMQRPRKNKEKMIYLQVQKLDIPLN
The series can be described thus: Inhibitory effect of catalposide on OCT2 transport activity. Conditions: probe 0.1 μM [3H]MPP+, catalposide 0–100 μM. It counts as in vitro ADME.

For series [6] the following is noted: rat liver microsomes in the presence of NADPH; cited from earlier work. On the technique in general: Liver microsomes are vesicles of endoplasmic reticulum, rich in cytochrome P450 enzymes.
The target of series [7] is T3, OCT2. Briefly: Uptake in HEK293 cells overexpressing OCT2. It counts as in vitro ADME. As to conditions: OCT2, influx.
A further series concerns the target T4, OATP1B1 (Homo sapiens, UniProt Q9Y6L6).
T4 sequence (Q9Y6L6 1-691): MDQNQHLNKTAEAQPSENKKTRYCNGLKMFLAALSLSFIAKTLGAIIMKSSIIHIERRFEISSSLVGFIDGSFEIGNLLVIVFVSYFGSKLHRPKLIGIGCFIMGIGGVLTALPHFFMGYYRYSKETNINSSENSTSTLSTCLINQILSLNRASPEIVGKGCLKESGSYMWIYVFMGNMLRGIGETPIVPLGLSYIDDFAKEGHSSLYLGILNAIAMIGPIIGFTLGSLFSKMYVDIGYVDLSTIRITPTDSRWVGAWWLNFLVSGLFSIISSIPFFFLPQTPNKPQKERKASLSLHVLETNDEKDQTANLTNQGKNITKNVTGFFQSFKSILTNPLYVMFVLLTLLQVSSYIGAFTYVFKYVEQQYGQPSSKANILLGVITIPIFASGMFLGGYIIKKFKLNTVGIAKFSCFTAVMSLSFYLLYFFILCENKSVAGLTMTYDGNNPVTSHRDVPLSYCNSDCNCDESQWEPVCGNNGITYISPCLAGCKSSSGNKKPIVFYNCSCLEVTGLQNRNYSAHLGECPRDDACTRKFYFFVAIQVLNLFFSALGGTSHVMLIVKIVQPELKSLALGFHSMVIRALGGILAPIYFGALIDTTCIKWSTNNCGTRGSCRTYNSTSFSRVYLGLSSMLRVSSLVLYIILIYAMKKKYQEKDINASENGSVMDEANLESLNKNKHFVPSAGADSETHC
The series can be described thus: Uptake in HEK293 cells overexpressing OATP1B1. It is filed as in vitro ADME. As to conditions: OATP1B1-mediated uptake.

Entries after “also recorded” stand apart in the source; their conditions may differ. Read-outs that look alike come from different tables or passages of the source.

Take `O=C(O[C@H]1[C@@H]2C=CO[C@@H](O[C@@H]3O[C@H](CO)[C@@H](O)[C@H](O)[C@H]3O)[C@@H]2[C@@]2(CO)O[C@@H]12)c1ccc(O)cc1` [catalposide]: the Stability entry in series [1] is reported as “remained stable”. In addition, at OAT1, the Inhibitor result is “did not significantly inhibit”. In addition, on BCRP [2], the Inhibitor result is listed as “did not significantly inhibit”. For the same molecule, the Substrate entry at BCRP [3] is “not involved; also recorded: not a substrate”. The “Recovery in the urine (unchanged form)” value in series [4] (intravenous 10 mg/kg, % of dose) is recorded as 9.9%. In addition, in [4] (intravenous), the Distribution volume was 2657.2 ± 1396.9 mL/kg, the Nonrenal clearance was 88.2 mL/min/kg, the Renal clearance is 8.47 mL/min/kg and the Systemic clearance was 96.7 ± 44.2 mL/min/kg. The Terminal half-life in series [4] (intravenous) was 19.3 ± 9.5 min. Moreover, at OCT2 [5], the Inhibitor entry was “did not significantly inhibit”. In addition, the Stability entry in series [6] is on record as “remained stable”. For the same molecule, the Substrate entry at OCT2 [7] is listed as “not involved”. The molecule also yielded a Hill coefficient n at OATP1B1 of approximately 1.

(Values after PMC4310350 (Drug Design, Development and Therapy, 2015).)
